According to US7244750B2, “Active substance combinations having insecticidal and acaricidal properties” (Bayer CropScience Aktiengesellschaft, priority 2000, dated 2007):

Tested on: whitefly Bemisia tabaci
Test: Bemisia test (plant-damaging insects; infested cotton plants immersed in active compound preparation)
Type: in vivo
Details: single active compound, eggs, larvae and pupae on cotton plants (Gossypium hirsutum)
Experimental: • Bemisia Test • Solvent: 7.5 parts by weight of dimethylformamide Emulsifier: 2.5 parts by weight of alkylaryl polyglycol ether
To produce a suitable preparation of active compound, 1 part by weight of active compound is mixed with the stated amounts of solvent and emulsifier, and the concentrate is diluted with water to the desired concentration.
Cotton plants (Gossypium hirsutum) which are infested with eggs, larvae and pupae of the whitefly Bemisia tabaci are immersed in a preparation of active compound of the desired concentration.
After the desired period of time, the kill in % is determined. 100% means that all animals have been killed; 0% means that none of the animals have been killed.

SMILES	Kill rate in % after 10 d (4 ppm) [%]	Kill rate in % after 10 d (20 ppm) [%]
Cc1cc(C)c(C2=C(OC(=O)CC(C)(C)C)C3(CCCC3)OC2=O)c(C)c1 [Ex. (I-b-1)]	0	80
CC(COc1ccc(Oc2ccccc2)cc1)Oc1ccccn1 (stereo not shown) [Pyriproxiphen, pyriproxyfen]	–	0
CC1=NNC(=O)N(/N=C/c2cccnc2)C1 [Pymetrozin, pymetrozin]	0	–
